These results are taken from ChEMBL document CHEMBL2346622, “Novel tacrine-related drugs as potential candidates for the treatment of Alzheimer's disease” (Bioorg Med Chem Lett, 2013).

In one assay the target is T1, Acetylcholinesterase (Rattus norvegicus, UniProt P37136).
T1 sequence (P37136 whole entry): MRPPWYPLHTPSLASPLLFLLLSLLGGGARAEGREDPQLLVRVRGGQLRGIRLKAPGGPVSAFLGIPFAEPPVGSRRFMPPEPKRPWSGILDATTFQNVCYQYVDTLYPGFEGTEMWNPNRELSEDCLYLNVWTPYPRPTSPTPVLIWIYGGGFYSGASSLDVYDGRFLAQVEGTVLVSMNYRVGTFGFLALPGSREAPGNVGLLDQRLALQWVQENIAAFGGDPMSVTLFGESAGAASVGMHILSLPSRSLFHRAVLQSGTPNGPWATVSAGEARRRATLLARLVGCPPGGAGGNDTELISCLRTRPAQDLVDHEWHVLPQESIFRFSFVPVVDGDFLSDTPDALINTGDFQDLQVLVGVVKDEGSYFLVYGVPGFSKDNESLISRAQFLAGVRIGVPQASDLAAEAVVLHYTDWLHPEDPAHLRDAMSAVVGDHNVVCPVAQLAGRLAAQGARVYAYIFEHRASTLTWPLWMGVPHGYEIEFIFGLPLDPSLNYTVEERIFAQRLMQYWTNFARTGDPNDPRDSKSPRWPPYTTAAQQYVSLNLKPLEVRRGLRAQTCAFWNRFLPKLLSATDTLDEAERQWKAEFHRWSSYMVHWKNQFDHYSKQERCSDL
Kind of assay: (§1) Inhibition of rat brain acetylcholinesterase.

Assay [1] has as its target T2, Acetylcholinesterase (Rattus norvegicus) (UniProt P37136).
T2 sequence (whole entry): T1 sequence (P37136 whole entry)
Described as §1.

On Acetylcholinesterase, `c1ccc2c(NCCCCCCCN3CCCCC3)c3c(nc2c1)CCCC3` had a half-maximal inhibitory concentration (IC50) of 20.4 nM. This molecule also came in with an Imax in assay [1] of 95%.
